Reference: patent US20120028897A1, “METHODS AND COMPOSITIONS FOR THE TREATMENT OF FLUID RETENTION DISORDERS” (priority 2008, published 2012)

Assays:
anesthetized rats [1] = assay: Renal potassium excretion during and after iv peptide infusion in anesthetized rats; assay type: in vivo, rat
Procedure: (§1) Rats were not fasted prior to clearance experiments and ranged in weight from 250-340 g at the time of study. Anesthesia was induced with an intraperitoneal injection of pentobarbital sodium (55 mg/kg BW) and maintained at a surgical plane by intermittent intravenous supplementation. Core temperature was maintained at 37° C. by a servo-controlled, heated operating table. Animals breathed spontaneously through a PE240 cannula inserted into the trachea. A jugular vein was catheterized with PE50 cannula tubing for intravenous infusion of isotonic saline containing FITC-labeled inulin (0.4% W/V, Sigma, St Louis Mo.) and two PE10 cannulae, one for supplemental anesthetic and the other for peptide infusions (described below in the experimental protocol section). The ureters were exposed through a midline ventral incision and cannulated with PE10 tubing about one cm from each kidney. Urine was collected over 20 min periods and the volume estimated by weight. A femoral artery was cannulated with PE50 tubing for continuous measurement of arterial blood pressure and intermittent blood samples (50 μl), taken at the mid point of each urine collection.
(§2) Arterial blood pressure was measured with a pressure transducer connected to a cardiovascular analyzer (Model 50110, Stoelting Instruments Wood Dale, Ill.). Left renal blood flow was measured in some rats with a flow probe positioned on the left renal artery and connected to a blood flow monitor (model 1 PRB probe and model T420 monitor, Transonic Systems Inc. Ithaca N.Y.). Arterial pressure, heart rate, and renal blood flow were digitized with an A/D converter (Keithley instruments, Cleveland, Ohio Model KUSB 3100) for display and storage on a Windows-based personal computer using open layers data acquisition software (Dtx_Ez, Data Translation Inc, Marlboro, Mass.). Sodium and potassium concentrations in plasma and urine were measured by flame photometry (Model 943, Instrumentation Laboratory Co., Lexington Mass.). Glomerular filtration rate (GFR) was measured as the renal clearance rate of FITC-labeled inulin
(§3) After post-surgical equilibration (−60 min) and three 20 min control clearance periods, huUgnA or B was infused into the jugular vein at 10 μl/min over a 60 min period, followed by a return to isotonic saline for the remainder of the experiment. The infused doses of huUgnA were 12, 25, 50, 100, or 200 nmol/kg BW in a total of 38 rats; huUgnB doses were 9, 18, 35, 70, and 140 nmol/kg BW in 35 rats. A UgnA mimetic, E. coli STh (ST-core), was infused into a third group of 32 rats at doses of 17, 32, 66, 133, and 266 nmol/kg. Renal excretory responses to these infusions were slow to develop and long lasting, so clearance periods were continued for 2-3 hr after the termination of the peptide infusion. This protracted time course limited protocols to one dose of one peptide in each rat. A control group of 10 rats received isotonic saline at 10 μl/min in place of the peptide infusion, but was otherwise treated in the same way as the experimental groups.
Sodium and potassium excretion rates are expressed as absolute values (UNaV and UKV) or factored by filtered load to provide fractional excretion (FENa and FEK). Glomerular filtration rate (GFR) was equated with inulin clearance. The net natriuretic response to peptide infusions was assessed by summing total Na excretion during infusion and post-infusion collection periods in each rat after subtraction of corresponding mean values obtained from the control group. The cumulative net excretion obtained in this way provides a measure of the natriuretic response to each dose of peptide infused. Results from both kidneys were averaged for each rat before calculating group means±sem.
Group comparisons were made with one way analysis of variance (ANOVA) using peptide doses as column variables. […]

anesthetized rats [2] = assay: Renal sodium excretion during and after iv peptide infusion in anesthetized rats; assay type: in vivo, rat
Procedure: as §1
All rats received a continuous intravenous infusion (10 μl/min/100 g BW) of isotonic saline containing FITC-labeled inulin for measurement of inulin clearance. Uncongugated FITC label and small inulin polymers were removed from the inulin solution by overnight dialysis against isotonic saline (SpectraPor 6 dialysis membrane, 1 kDa cutoff-limit, Spectrum Laboratories, Rancho Domingo, Calif.). Undissolved particulates were removed from the solution by filtration through a […] filter before each experiment (Steriflip, Millipore Inc. Billerica, Mass.). At least one hr was allowed for equilibration before the start of urine collections, at which point plasma inulin concentration had stabilized at an average value of 30±3 μg/ml.
as §2, §3
The effects of combined infusions of huUgnA and B were investigated in two groups of rats that received 35 nmol/kg of huUgnB together with either 25 nmol/kg (n=5) or 100 nmol/kg of huUgnA (n=5). […]

[3] = huUgnA 25 nmol, Post-infuse, *** p<0.005 vs time control

CC(C)C[C@H](NC(=O)[C@@H]1CSSC[C@@H]2NC(=O)[C@H](CC(C)C)NC(=O)[C@H](CCC(=O)O)NC(=O)[C@@H](NC(=O)[C@H](CC(=O)O)NC(=O)[C@H](CC(=O)O)NC(=O)[C@@H](N)CC(N)=O)CSSC[C@H](NC(=O)[C@H](C)NC(=O)[C@H](C(C)C)NC(=O)[C@H](CC(N)=O)NC(=O)[C@H](C(C)C)NC2=O)C(=O)N[C@@H]([C@@H](C)O)C(=O)NCC(=O)N1)C(=O)O (single isomer, unassigned) [huUgnA, Asn Asp Asp Cys Glu Leu Cys Val Asn Val Ala Cys Thr Gly Cys Leu, reference compound]
increase in UKV during or after infusion (anesthetized rats [1]; any dose tested): no statistically significant increases | FEK (fractional potassium excretion) (anesthetized rats [1]; huUgnA 12 nmol, Infuse): 29.8 ± 3.6 % of filtered | UKV (potassium excretion) (anesthetized rats [1]; huUgnA 12 nmol, Infusion): 1097 ± 54 nEq/min/g KW | FEK (fractional potassium excretion) (anesthetized rats [1]; huUgnA 12 nmol, Post-infuse): 34.9 ± 2.7 % of filtered | UKV (potassium excretion) (anesthetized rats [1]; huUgnA 12 nmol, Post-infuse): 1299 ± 51 nEq/min/g KW | FEK (fractional potassium excretion) (anesthetized rats [1]; huUgnA 12 nmol, Pre-infuse): 18.8 ± 2.3 % of filtered | UKV (potassium excretion) (anesthetized rats [1]; huUgnA 12 nmol, Pre-infuse): 709 ± 74 nEq/min/g KW | FEK (fractional potassium excretion) (anesthetized rats [1]; huUgnA 25 nmol, Infuse): 40.7 ± 3.5 % of filtered | UKV (potassium excretion) (anesthetized rats [1]; huUgnA 25 nmol, Infusion): 1292 ± 80 nEq/min/g KW | FEK (fractional potassium excretion) (anesthetized rats [1]; huUgnA 25 nmol, Post-infuse): 46.5 ± 3.8 % of filtered | UKV (potassium excretion) (anesthetized rats [1]; huUgnA 25 nmol, Post-infuse): 1309 ± 68 nEq/min/g KW | FEK (fractional potassium excretion) (anesthetized rats [1]; huUgnA 25 nmol, Pre-infuse): 25.6 ± 2.4 % of filtered | UKV (potassium excretion) (anesthetized rats [1]; huUgnA 25 nmol, Pre-infuse): 780 ± 69 nEq/min/g KW | FEK (fractional potassium excretion) (anesthetized rats [1]; huUgnA 50 nmol, Infuse): 32.0 ± 2.7 % of filtered | UKV (potassium excretion) (anesthetized rats [1]; huUgnA 50 nmol, Infusion): 988 ± 66 nEq/min/g KW | FEK (fractional potassium excretion) (anesthetized rats [1]; huUgnA 50 nmol, Post-infuse): 36.3 ± 3.6 % of filtered | UKV (potassium excretion) (anesthetized rats [1]; huUgnA 50 nmol, Post-infuse): 1180 ± 57 nEq/min/g KW | FEK (fractional potassium excretion) (anesthetized rats [1]; huUgnA 50 nmol, Pre-infuse): 20.8 ± 2.1 % of filtered | UKV (potassium excretion) (anesthetized rats [1]; huUgnA 50 nmol, Pre-infuse): 722 ± 52 nEq/min/g KW | FEK (fractional potassium excretion) (anesthetized rats [1]; huUgnA 100 nmol, Infuse): 28.0 ± 3.5 % of filtered | UKV (potassium excretion) (anesthetized rats [1]; huUgnA 100 nmol, Infusion): 878 ± 60 nEq/min/g KW | FEK (fractional potassium excretion) (anesthetized rats [1]; huUgnA 100 nmol, Post-infuse): 29.9 ± 2.9 % of filtered | UKV (potassium excretion) (anesthetized rats [1]; huUgnA 100 nmol, Post-infuse): 970 ± 72 nEq/min/g KW | FEK (fractional potassium excretion) (anesthetized rats [1]; huUgnA 100 nmol, Pre-infuse): 19.3 ± 2.5 % of filtered | UKV (potassium excretion) (anesthetized rats [1]; huUgnA 100 nmol, Pre-infuse): 602 ± 51 nEq/min/g KW | FEK (fractional potassium excretion) (anesthetized rats [1]; huUgnA 200 nmol, Infuse): 40.8 ± 7.7 % of filtered | UKV (potassium excretion) (anesthetized rats [1]; huUgnA 200 nmol, Infusion): 1203 ± 161 nEq/min/g KW | UKV (potassium excretion) (anesthetized rats [1]; huUgnA 200 nmol, Post-infuse): 1380 ± 73 nEq/min/g KW | FEK (fractional potassium excretion) (anesthetized rats [1]; huUgnA 200 nmol, Post-infuse, *** p<0.005 vs time control): 57.5 ± 6.7*** % of filtered | FEK (fractional potassium excretion) (anesthetized rats [1]; huUgnA 200 nmol, Pre-infuse): 27.7 ± 5.9 % of filtered | UKV (potassium excretion) (anesthetized rats [1]; huUgnA 200 nmol, Pre-infuse): 860 ± 118 nEq/min/g KW | FEK vs control (anesthetized rats [1]; post infusion period, only after the highest doses): increased over control levels | single effective dose, cumulative sodium excretion (anesthetized rats [2]; FIG. 6B, lower or higher doses not different from control): 25 nmol/kg | FENa (fractional sodium excretion) (anesthetized rats [2]; huUgnA 12 nmol, Infuse): 0.10 ± 0.02 % of filtered | UNaV (sodium excretion) (anesthetized rats [2]; huUgnA 12 nmol, Infusion): 118.1 ± 25 nEq/min/g KW | FENa (fractional sodium excretion) (anesthetized rats [2]; huUgnA 12 nmol, Post-infuse): 0.17 ± 0.02 % of filtered | UNaV (sodium excretion) (anesthetized rats [2]; huUgnA 12 nmol, Post-infuse): 222 ± 33 nEq/min/g KW | FENa (fractional sodium excretion) (anesthetized rats [2]; huUgnA 12 nmol, Pre-infuse): 0.08 ± 0.02 % of filtered | UNaV (sodium excretion) (anesthetized rats [2]; huUgnA 12 nmol, Pre-infuse): 85 ± 20 nEq/min/g KW | FENa (fractional sodium excretion) (anesthetized rats [2]; huUgnA 25 nmol, Infuse, * p<0.05 vs time control): 0.27 ± 0.08* % of filtered | UNaV (sodium excretion) (anesthetized rats [2]; huUgnA 25 nmol, Infusion, * p<0.05 vs time control): 291.7 ± 77* nEq/min/g KW | FENa (fractional sodium excretion) (anesthetized rats [2]; [3]): 0.68 ± 0.08*** % of filtered | UNaV (sodium excretion) (anesthetized rats [2]; [3]): 664 ± 75*** nEq/min/g KW | FENa (fractional sodium excretion) (anesthetized rats [2]; huUgnA 25 nmol, Pre-infuse): 0.09 ± 0.01 % of filtered | UNaV (sodium excretion) (anesthetized rats [2]; huUgnA 25 nmol, Pre-infuse): 93 ± 7 nEq/min/g KW | FENa (fractional sodium excretion) (anesthetized rats [2]; huUgnA 50 nmol, Infuse): 0.10 ± 0.01 % of filtered | UNaV (sodium excretion) (anesthetized rats [2]; huUgnA 50 nmol, Infusion): 117.5 ± 22 nEq/min/g KW | FENa (fractional sodium excretion) (anesthetized rats [2]; huUgnA 50 nmol, Post-infuse): 0.28 ± 0.05 % of filtered | UNaV (sodium excretion) (anesthetized rats [2]; huUgnA 50 nmol, Post-infuse, * p<0.05 vs time control): 342 ± 63* nEq/min/g KW | FENa (fractional sodium excretion) (anesthetized rats [2]; huUgnA 50 nmol, Pre-infuse): 0.06 ± 0.01 % of filtered | UNaV (sodium excretion) (anesthetized rats [2]; huUgnA 50 nmol, Pre-infuse): 73 ± 10 nEq/min/g KW | FENa (fractional sodium excretion) (anesthetized rats [2]; huUgnA 100 nmol, Infuse): 0.12 ± 0.03 % of filtered | UNaV (sodium excretion) (anesthetized rats [2]; huUgnA 100 nmol, Infusion): 130.8 ± 32 nEq/min/g KW | FENa (fractional sodium excretion) (anesthetized rats [2]; huUgnA 100 nmol, Post-infuse): 0.27 ± 0.06 % of filtered | UNaV (sodium excretion) (anesthetized rats [2]; huUgnA 100 nmol, Post-infuse): 328 ± 80 nEq/min/g KW | FENa (fractional sodium excretion) (anesthetized rats [2]; huUgnA 100 nmol, Pre-infuse): 0.06 ± 0.01 % of filtered | UNaV (sodium excretion) (anesthetized rats [2]; huUgnA 100 nmol, Pre-infuse): 66 ± 9 nEq/min/g KW | FENa (fractional sodium excretion) (anesthetized rats [2]; huUgnA 200 nmol, Infuse): 0.11 ± 0.02 % of filtered | UNaV (sodium excretion) (anesthetized rats [2]; huUgnA 200 nmol, Infusion): 120.6 ± 18 nEq/min/g KW | FENa (fractional sodium excretion) (anesthetized rats [2]; huUgnA 200 nmol, Post-infuse): 0.29 ± 0.03 % of filtered | UNaV (sodium excretion) (anesthetized rats [2]; huUgnA 200 nmol, Post-infuse): 342 ± 51 nEq/min/g KW | FENa (fractional sodium excretion) (anesthetized rats [2]; huUgnA 200 nmol, Pre-infuse): 0.06 ± 0.01 % of filtered | UNaV (sodium excretion) (anesthetized rats [2]; huUgnA 200 nmol, Pre-infuse): 67 ± 1 nEq/min/g KW | UNaV time course, ANOVA vs control (anesthetized rats [2]; infusion period (p<0.05) and post infusion period (p<0.001)): significant increase | shape of natriuretic dose-response relationship (anesthetized rats [2]; rat, in vivo): bell-shaped
